Reference: ChEMBL document CHEMBL2396625 (Bioorg Med Chem Lett, 2013)
Activity calls are given as the source filed them. The calls are words filed in the database; no cut-off is given here.

Key:
[1] = target: T1, Tyrosine-protein phosphatase non-receptor type 2 (Homo sapiens) (UniProt P17706); assay: Inhibition of TCPTP (unknown origin) using DiFMUP as substrate at 5 uM relative to control
T1 sequence (whole entry): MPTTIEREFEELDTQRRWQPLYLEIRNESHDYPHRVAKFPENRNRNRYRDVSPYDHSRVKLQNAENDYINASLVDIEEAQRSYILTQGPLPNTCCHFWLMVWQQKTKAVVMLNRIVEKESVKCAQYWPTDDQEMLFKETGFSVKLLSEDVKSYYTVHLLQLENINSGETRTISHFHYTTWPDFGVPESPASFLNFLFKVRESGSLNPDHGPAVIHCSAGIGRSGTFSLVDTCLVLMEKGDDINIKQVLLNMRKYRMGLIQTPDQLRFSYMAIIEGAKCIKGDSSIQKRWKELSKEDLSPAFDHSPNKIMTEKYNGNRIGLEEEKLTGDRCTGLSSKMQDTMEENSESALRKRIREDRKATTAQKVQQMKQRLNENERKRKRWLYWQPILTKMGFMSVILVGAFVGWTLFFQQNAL

[2] = target: T2, Tyrosine-protein phosphatase non-receptor type 11 (Homo sapiens) (UniProt Q06124); assay: Inhibition of SHP2 (unknown origin) using DiFMUP as substrate at 5 uM relative to control
T2 sequence (whole entry): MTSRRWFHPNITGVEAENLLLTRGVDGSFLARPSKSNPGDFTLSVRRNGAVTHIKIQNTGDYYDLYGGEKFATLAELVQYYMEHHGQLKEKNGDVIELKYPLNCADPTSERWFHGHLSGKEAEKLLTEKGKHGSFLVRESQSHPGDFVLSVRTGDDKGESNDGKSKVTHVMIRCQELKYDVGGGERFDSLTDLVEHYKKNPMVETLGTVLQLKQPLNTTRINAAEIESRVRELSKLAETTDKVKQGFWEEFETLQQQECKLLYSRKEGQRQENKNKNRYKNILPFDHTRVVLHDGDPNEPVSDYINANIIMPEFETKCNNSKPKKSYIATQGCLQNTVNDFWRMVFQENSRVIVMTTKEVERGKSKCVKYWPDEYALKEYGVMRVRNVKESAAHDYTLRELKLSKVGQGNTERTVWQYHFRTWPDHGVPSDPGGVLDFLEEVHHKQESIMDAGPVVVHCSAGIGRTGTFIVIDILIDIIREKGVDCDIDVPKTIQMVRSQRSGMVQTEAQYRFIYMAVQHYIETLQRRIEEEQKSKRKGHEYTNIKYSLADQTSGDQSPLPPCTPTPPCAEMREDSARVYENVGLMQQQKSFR

Homo sapiens = species on record: Homo sapiens; assay: Inhibition of PP2A (unknown origin) using DiFMUP as substrate at 5 uM relative to control
[3] = target: T3, Tyrosine-protein phosphatase non-receptor type 1 (Homo sapiens) (UniProt P18031); assay: Inhibition of PTP1B (unknown origin) using DiFMUP as substrate at 5 uM relative to control
T3 sequence (whole entry): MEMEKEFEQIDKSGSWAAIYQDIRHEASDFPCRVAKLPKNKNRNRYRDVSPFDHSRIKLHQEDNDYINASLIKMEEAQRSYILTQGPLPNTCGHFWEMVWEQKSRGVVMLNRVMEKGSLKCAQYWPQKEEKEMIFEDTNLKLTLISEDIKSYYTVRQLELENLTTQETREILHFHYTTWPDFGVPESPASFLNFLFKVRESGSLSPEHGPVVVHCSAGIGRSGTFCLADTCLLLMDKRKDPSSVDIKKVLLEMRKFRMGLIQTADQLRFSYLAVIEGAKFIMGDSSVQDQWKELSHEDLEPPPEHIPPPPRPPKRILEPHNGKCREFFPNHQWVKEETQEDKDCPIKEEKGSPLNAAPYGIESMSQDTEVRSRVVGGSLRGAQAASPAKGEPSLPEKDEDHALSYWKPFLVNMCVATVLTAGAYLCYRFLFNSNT

[4] = target: T4, Dual specificity protein phosphatase 10 (Homo sapiens) (UniProt Q9Y6W6); assay: Inhibition of MKP5 (unknown origin) using DiFMUP as substrate at 5 uM relative to control
T4 sequence (whole entry): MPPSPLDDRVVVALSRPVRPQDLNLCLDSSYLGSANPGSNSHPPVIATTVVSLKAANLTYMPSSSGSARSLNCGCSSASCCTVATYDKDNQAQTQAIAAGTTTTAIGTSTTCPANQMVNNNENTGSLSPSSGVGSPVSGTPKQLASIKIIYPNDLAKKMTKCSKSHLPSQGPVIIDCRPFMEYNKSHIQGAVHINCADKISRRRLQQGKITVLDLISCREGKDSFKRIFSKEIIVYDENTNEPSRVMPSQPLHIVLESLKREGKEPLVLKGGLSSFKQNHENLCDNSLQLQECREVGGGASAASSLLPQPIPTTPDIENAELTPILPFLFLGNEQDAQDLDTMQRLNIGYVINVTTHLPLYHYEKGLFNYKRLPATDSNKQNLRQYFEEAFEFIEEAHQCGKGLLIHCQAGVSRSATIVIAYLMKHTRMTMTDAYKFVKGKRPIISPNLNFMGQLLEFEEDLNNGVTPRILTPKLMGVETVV

DLD-1 [5] = assay: Antimigratory activity against human DLD1 cells overexpressing PRL3 at 10 uM after 20 hrs by crystal violet staining-based light microscopic analysis; assay type: functional, cell-based
MIA PaCa-2 = assay: Antimigratory activity against human MIAPaCa2 cells overexpressing PRL3 at 10 to 20 uM after 20 hrs by crystal violet staining-based light microscopic analysis; assay type: functional, cell-based
A375P = assay: Antimigratory activity against human A375P cells overexpressing PRL3 at 10 to 20 uM after 20 hrs by crystal violet staining-based light microscopic analysis; assay type: functional, cell-based
MDA-MB-231 = assay: Antimigratory activity against human MDA-MB-231 cells expressing low level of PRL3 at 10 to 20 uM after 20 hrs by crystal violet staining-based light microscopic analysis; assay type: functional, cell-based
DU-145 = assay: Antimigratory activity against human DU145 cells expressing low level of PRL3 at 10 to 20 uM after 20 hrs by crystal violet staining-based light microscopic analysis; assay type: functional, cell-based
DLD-1 [6] = assay: Cytotoxicity against human DLD1 cells overexpressing PRL3 assessed as growth inhibition at 50 uM after 24 hrs by WST-1 assay; assay type: cell-based; details: dld-1, 24 h
[7] = Cytotoxicity against human DLD1 cells overexpressing PRL3 assessed as cell viability at 10 ug/ml after 24 hrs by WST-1 assay relative to control; assay type: cell-based; details: DLD-1 cells overexpressing PRL3, read-out: Activity
DLD-1 [8] = assay: Antimigratory activity against human DLD1 cells overexpressing PRL3 at 20 uM after 20 hrs by crystal violet staining-based light microscopic analysis relative to control; assay type: functional; details: DLD-1, 20 h
DLD-1 [9] = assay: Antimigratory activity against human DLD1 cells overexpressing PRL3 at 10 ug/ml after 20 hrs by crystal violet staining-based light microscopic analysis relative to control; assay type: functional; details: DLD-1, 20 h
[10] = target: Tyrosine-protein phosphatase YopH (Yersinia enterocolitica) (UniProt P15273); assay: Inhibition of yopH (unknown origin) using DiFMUP as substrate at 5 uM relative to control

Row | inhibition [1] [%] | inhibition [2] [%] | inhibition (Homo sapiens) [%] | inhibition [3] [%] | inhibition [4] [%] | inhibition [10] [%] | Structure (SMILES) | Activity (DLD-1 [5]) | Activity (MIA PaCa-2) | Activity (A375P) | Activity (MDA-MB-231) | Activity (DU-145) | Activity (DLD-1 [6]) | viability at 24 h, 10 ug/ml [7] [%] | inhibition at 20 µM (DLD-1 [8]) [%] | inhibition at 10 µg/mL (DLD-1 [9]) [%]
1 | 9 | 27 | 0 | 11 | 5 | 14 | O=C1NC(=S)S/C1=C\c1cc(Br)ccc1OCc1ccccc1Br | Active | Active | Active | inactive | inactive | Non-toxic | 98.1 | > 90 | 95
2 | 1 | 18 | 29 | 8 | 1 | 9 | COc1ccccc1COc1ccccc1/C=C/C=C1\SC(=S)NC1=O | Active | Active | Active | inactive | inactive | Non-toxic | 99.5 | > 90 | 98
